In patent US8633019B2, “Methods for treating spinal muscular atrophy” (PTC Therapeutics, Inc., priority 2008, dated 2014):

Tested on: inclusion of exon 7 of SMN2 into mRNA transcribed from the SMN2-A minigene
Experiment: Fold Activation: luciferase reporter, SMN2-A minigene construct versus SMN2-G minigene construct, in stably transfected HEK293H cells
Format: cell-based, human
Details: ratio of First Activation using the SMN2-A construct divided by Second Activation using the SMN2-G construct
Description: In a specific embodiment, the first cell and the second cell are the same cell type. In some embodiments, the first cell and the second cell are the same cell type and are obtained from the same source or clone. In some embodiments, the first reporter gene and the second reporter gene are the same reporter gene. In other embodiments, the first reporter gene and second reporter gene are different reporter genes. A compound that increases the inclusion of exon 7 of SMN2 into mRNA transcribed from the SMN2 gene will result in a Fold Activation derived from a higher ratio of the First Activation:
[formula] [formula] [formula] In some embodiments, both the amount and activity of the first and second fusion proteins are detected. Accordingly, as used herein, the Fold Activation for a compound that modulates the inclusion of exon 7 of SMN2 into mRNA transcribed from the SMN2 gene is a ratio of the First Activation divided by the Second Activation.
The HEK293H cell line stably transfected with the SMN2-A minigene construct was utilized in the HTS. HTS was performed by plating 10,000 cells in each well of a 384-well plate. Each 384-well plate contained 64 control wells used as an internal standard: 16 wells were used as a total control (no test compound, only compound solvent), 16 wells were used as reference standards representing background readings (high inhibitor concentration) and 32 wells were prepared to provide an 8-point dose response curve of puromycin as a non-specific standard control inhibitor. The remaining 320 wells contained individual test compounds. The cells were grown overnight in the presence of test compounds or controls at 37° C. in 5% CO2. After 24 hours, the amount of luminescence was determined using a ViewLux Imaging system (Perkin Elmer).
Using the SMN2-A minigene construct, a HTS was performed testing a compound library. The amount of the fusion protein expressed from the minigene construct was determined by measuring luciferase activity as described herein. […] Enhancers of fusion protein expression were defined as those compounds that increased luciferase activity by at least three standard deviations above the mean. Based on this analysis, test compounds of Formula (I) were identified as hits and were subsequently confirmed by testing the compounds under the same conditions as in the original HTS. To ensure that the increase in luciferase activity detected in the HTS was due to increased inclusion of exon 7 of SMN2 into mRNA transcripts from the SMN2-A minigene construct, each compound was tested in two different cell lines: the cell line, which was used in the original HTS (HEK293H containing the SMN2-A minigene construct), and a HEK293H cell line that contained the SMN2-G minigene construct.
Each compound was tested at four concentrations: 15 μM, 3 μM, 0.6 μM, 0.12 μM.
The Fold Activation results are provided as a ratio of a First Activation using the SMN-2A construct divided by a Second Activation using the SMN-2G construct, wherein 1 star (*) represents active compounds with a fold increase ratio between 1.1-1.3; 2 stars (**) represent active compounds with a fold increase ratio between 1.3-2.0; 3 stars (***) represent active compounds with a fold increase ratio greater than 2.0.

| SMILES | Activity (Fold Activation) |
| --- | --- |
| Cc1ccc2nc(-c3cccc(C(N)=O)c3)oc2c1 [Cpd 112, 3-(6-methyl-benzooxazol-2-yl)-benzamide] | ** (2 stars (**) represent active compounds with a fold increase ratio between 1.3-2.0) |
| Cc1cc(-c2nc3cc(C(=O)O)ccc3o2)c(C)o1 [Cpd 77, 2-(2,5-dimethyl-furan-3-yl)-benzooxazole-5-carboxylic acid] | * (1 star (*) represents active compounds with a fold increase ratio between 1.1-1.3) |
| O=C(O)c1ccc2oc(-c3ccc(NCCCCl)cc3)nc2c1 [Cpd 54, 2-[4-(3-chloro-propylamino)-phenyl]-benzooxazole-5-carboxylic acid] | ** (2 stars (**) represent active compounds with a fold increase ratio between 1.3-2.0) |
| Cc1ccc2nc(-c3cccc(C(=O)O)c3)oc2c1 [Cpd 2, 3-(6-methyl-benzooxazol-2-yl)-benzoic acid] | * (1 star (*) represents active compounds with a fold increase ratio between 1.1-1.3) |
| CC(=O)Nc1ccc2oc(-c3ccc(Br)c(C)c3)nc2c1 [Cpd 128, N-[2-(4-bromo-3-methyl-phenyl)-benzooxazol-5-yl]-acetamide] | *** (3 stars (***) represent active compounds with a fold increase ratio greater than 2.0) |
| O=C(O)c1cccc(-c2nc3ccc(N4CCOCC4)cc3o2)c1 [Cpd 42, 3-(6-morpholin-4-yl-benzooxazol-2-yl)-benzoic acid] | ** (2 stars (**) represent active compounds with a fold increase ratio between 1.3-2.0) |
| COc1ccc2nc(-c3cccc(C(N)=O)c3)oc2c1 [Cpd 111, 3-(6-methoxy-benzooxazol-2-yl)-benzamide] | ** (2 stars (**) represent active compounds with a fold increase ratio between 1.3-2.0) |
| Cc1ccc2oc(-c3cccc(C(=O)O)c3)nc2c1 [Cpd 21, 3-(5-methyl-benzooxazol-2-yl)-benzoic acid] | *** (3 stars (***) represent active compounds with a fold increase ratio greater than 2.0) |
| O=C(O)c1ccc2oc(-c3ccc(-c4ccccc4)cc3)nc2c1 [Cpd 19, 2-biphenyl-4-yl-benzooxazole-5-carboxylic acid] | ** (2 stars (**) represent active compounds with a fold increase ratio between 1.3-2.0) |
| O=C(O)c1cccc(-c2nc3ccc(-c4ccccc4)cc3o2)c1 [Cpd 23, 3-(6-Phenyl-benzooxazol-2-yl)-benzoic acid] | * (1 star (*) represents active compounds with a fold increase ratio between 1.1-1.3) |
| CC(C)c1ccc(-c2nc3cc(C(=O)O)ccc3o2)cc1 [Cpd 24, 2-(4-isopropyl-phenyl)-benzooxazole-5-carboxylic acid] | *** (3 stars (***) represent active compounds with a fold increase ratio greater than 2.0) |
| CN1CCCN(c2ccc3nc(-c4cccc(C(=O)O)c4)oc3c2)CC1 [Cpd 81, 3-[6-(4-methyl-[1,4]diazepan-1-yl)-benzooxazol-2-yl]-benzoic acid] | * (1 star (*) represents active compounds with a fold increase ratio between 1.1-1.3) |
| O=C(O)c1cccc(-c2nc3ccc(Cn4ccnc4)cc3o2)c1 [Cpd 8, 3-(6-imidazol-1-ylmethyl-benzooxazol-2-yl)-benzoic acid] | ** (2 stars (**) represent active compounds with a fold increase ratio between 1.3-2.0) |
| COc1ccc2oc(-c3cccc(C(=O)O)c3)nc2c1 [Cpd 32, 3-(5-methoxy-benzooxazol-2-yl)-benzoic acid] | *** (3 stars (***) represent active compounds with a fold increase ratio greater than 2.0) |
| Cc1ccc(-c2nc3cc(C(=O)O)ccc3o2)cc1 [Cpd 38, 2-p-tolyl-benzooxazole-5-carboxylic acid] | *** (3 stars (***) represent active compounds with a fold increase ratio greater than 2.0) |
| Cc1cc(C)cc(-c2ccc3oc(-c4cccc(C(=O)O)c4)nc3c2)c1 [Cpd 37, 3-[5-(3,5-dimethyl-phenyl)-benzooxazol-2-yl]-benzoic acid] | * (1 star (*) represents active compounds with a fold increase ratio between 1.1-1.3) |

| SMILES | Activity (Fold Activation) |
| --- | --- |
| O=C(O)c1ccc2oc(-c3ccc(OC(F)(F)F)cc3)nc2c1 [Cpd 100, 2-(4-trifluoromethoxy-phenyl)-benzooxazole-5-carboxylic acid] | ** (2 stars (**) represent active compounds with a fold increase ratio between 1.3-2.0) |
| O=C(O)c1ccc2nc(-c3ccccc3F)oc2c1 [Cpd 66, 2-(2-fluoro-phenyl)-benzooxazole-6-carboxylic acid] | *** (3 stars (***) represent active compounds with a fold increase ratio greater than 2.0) |
| O=C(O)c1ccc2oc(-c3ccc(N4CCOCC4)cc3)nc2c1 [Cpd 51, 2-(4-morpholin-4-yl-phenyl)-benzooxazole-5-carboxylic acid] | ** (2 stars (**) represent active compounds with a fold increase ratio between 1.3-2.0) |
| CC(C)(C)c1ccc2oc(-c3cccc(C(=O)O)c3)nc2c1 [Cpd 6, 3-(5-tert-butyl-benzooxazol-2-yl)-benzoic acid] | ** (2 stars (**) represent active compounds with a fold increase ratio between 1.3-2.0) |
| O=C(O)c1ccc2nc(-c3ccc(-c4ccccc4)cc3)oc2c1 [Cpd 18, 2-biphenyl-4-yl-benzooxazole-6-carboxylic acid] | * (1 star (*) represents active compounds with a fold increase ratio between 1.1-1.3) |
| O=C(O)c1ccc2nc(-c3cccnc3)oc2c1 [Cpd 69, 2-pyridin-3-yl-benzooxazole-6-carboxylic acid] | * (1 star (*) represents active compounds with a fold increase ratio between 1.1-1.3) |
| O=C(O)c1cccc(-c2nc3ccc(-n4cccn4)cc3o2)c1 [Cpd 44, 3-(6-pyrazol-1-yl-benzooxazol-2-yl)-benzoic acid] | ** (2 stars (**) represent active compounds with a fold increase ratio between 1.3-2.0) |
| O=C(O)c1ccc2oc(-c3ccc(N4CCOCC4)nc3)nc2c1 [Cpd 90, 2-(6-morpholin-4-yl-pyridin-3-yl)-benzooxazole-5-carboxylic acid] | ** (2 stars (**) represent active compounds with a fold increase ratio between 1.3-2.0) |
| NC(=O)c1cccc(-c2nc3ccc(NCCc4ccccc4)cc3o2)c1 [Cpd 73, 3-(6-phenethylamino-benzooxazol-2-yl)-benzamide] | * (1 star (*) represents active compounds with a fold increase ratio between 1.1-1.3) |
| O=C(O)c1cccc(-c2nc3cc(N4CCCC4)ccc3o2)c1 [Cpd 43, 3-(5-pyrrolidin-1-yl-benzooxazol-2-yl)-benzoic acid] | ** (2 stars (**) represent active compounds with a fold increase ratio between 1.3-2.0) |
| O=C(O)c1ccc2nc(-c3ccco3)oc2c1 [Cpd 65, 2-furan-2-yl-benzooxazole-6-carboxylic acid] | ** (2 stars (**) represent active compounds with a fold increase ratio between 1.3-2.0) |
| O=C(O)c1cccc(-c2nc3ccc(C(=O)N4CCCC4)cc3o2)c1 [Cpd 71, 3-[6-(pyrrolidine-1-carbonyl)-benzooxazol-2-yl]-benzoic acid] | ** (2 stars (**) represent active compounds with a fold increase ratio between 1.3-2.0) |
| CN1CCN(c2ccc3nc(-c4cccc(C(=O)O)c4)oc3c2)CC1 [Cpd 48, 3-[6-(4-methyl-piperazin-1-yl)-benzooxazol-2-yl]-benzoic acid] | * (1 star (*) represents active compounds with a fold increase ratio between 1.1-1.3) |
| O=C(O)c1ccc2oc(-c3ccc(N4CCC4)cc3)nc2c1 [Cpd 57, 2-(4-azetidin-1-yl-phenyl)-benzooxazole-5-carboxylic acid] | ** (2 stars (**) represent active compounds with a fold increase ratio between 1.3-2.0) |
| O=C(O)c1cccc(-c2nc3cc(-c4ccc(F)c(F)c4)ccc3o2)c1 [Cpd 30, 3-[5-(3,4-difluoro-phenyl)-benzooxazol-2-yl]-benzoic acid] | ** (2 stars (**) represent active compounds with a fold increase ratio between 1.3-2.0) |
| NC(=O)c1cccc(-c2nc3ccc(Nc4ccccc4)cc3o2)c1 [Cpd 106, 3-(6-phenylamino-benzooxazol-2-yl)-benzamide] | * (1 star (*) represents active compounds with a fold increase ratio between 1.1-1.3) |
